Laboratory results reported in ChEMBL document CHEMBL3832881, “CO-ADD antimicrobial screening data of OSM samples” (2017).
Converted amounts (≈) assume the structure as drawn.

Tests used:
Staphylococcus aureus [1] = assay: Antibacterial activity against Staphylococcus aureus MRSA ATCC 43300; Growth inhibition at 32 ug/mL in CAMBH media using NBS plates.; format: functional, ATCC 43300; MRSA; conditions: ASSAY_TEST Inhibition of Bacterial Growth, CONC 32 ug.mL-1, detection method Absorption (OD600), MEDIA CAMHB, plate type NBS, 384well, time 18 hr
Escherichia coli [2] = assay: Antibacterial activity against Escherichia coli ATCC 25922; Growth inhibition at 32 ug/mL in CAMBH media using NBS plates.; format: functional, ATCC 25922; Type strain; conditions: Type strain, ASSAY_TEST Inhibition of Bacterial Growth, CONC 32 ug.mL-1, detection method Absorption (OD600), MEDIA CAMHB, plate type NBS, 384well, time 18 hr
Klebsiella pneumoniae [3] = assay: Antibacterial activity against Klebsiella pneumoniae MDR ATCC 70063; Growth inhibition at 32 ug/mL in CAMBH media using NBS plates.; format: functional, ATCC 700603; MDR; conditions: ATCC 700603, ASSAY_TEST Inhibition of Bacterial Growth, CONC 32 ug.mL-1, detection method Absorption (OD600), MEDIA CAMHB, plate type NBS, 384well, time 18 hr
Pseudomonas aeruginosa [4] = assay: Antibacterial activity against Pseudomonas aeruginosa ATCC 27853; Growth inhibition at 32 ug/mL in CAMBH media using NBS plates.; format: functional, ATCC 27853; Type strain; conditions: Type strain, ASSAY_TEST Inhibition of Bacterial Growth, CONC 32 ug.mL-1, detection method Absorption (OD600), MEDIA CAMHB, plate type NBS, 384well, time 18 hr
Acinetobacter baumannii [5] = assay: Antibacterial activity against Acinetobacter baumannii ATCC 19606; Growth inhibition at 32 ug/mL in CAMBH media using NBS plates.; format: functional, ATCC 19606; Type strain; conditions: Type strain, ASSAY_TEST Inhibition of Bacterial Growth, CONC 32 ug.mL-1, detection method Absorption (OD600), MEDIA CAMHB, plate type NBS, 384well, time 18 hr
Candida albicans [6] = assay: Antifungal activity against Candida albicans ATCC 90028; Growth inhibition at 32 ug/mL in YNB media using NBS plates.; format: functional, ATCC 90028; CLSI reference; conditions: CLSI reference, ASSAY_TEST Inhibition of Fungal Growth, CONC 32 ug.mL-1, detection method Absorption (OD600), plate type NBS, 384well, time 18 hr
Cryptococcus neoformans [7] = assay: Antifungal activity against Cryptococcus neoformans H99 ATCC 208821; Growth inhibition at 32 ug/mL in YNB media using NBS plates.; format: functional, ATCC 208821; H99 Type strain; conditions: H99 Type strain, ASSAY_TEST Inhibition of Fungal Growth, CONC 32 ug.mL-1, detection method Resazurin, Absorption (OD600-OD570), plate type NBS, 384well, time 18 hr
Staphylococcus aureus [8] = assay: Antibacterial activity against Staphylococcus aureus MRSA ATCC 43300; MIC in CAMBH media using NBS plates.; format: functional, ATCC 43300; MRSA; conditions: ASSAY_TEST Inhibition of Bacterial Growth, detection method Absorption (OD600), MEDIA CAMHB, plate type NBS, 384well, time 18 hr
Escherichia coli [9] = assay: Antibacterial activity against Escherichia coli ATCC 25922; MIC in CAMBH media using NBS plates.; format: functional, ATCC 25922; Type strain; conditions: Type strain, ASSAY_TEST Inhibition of Bacterial Growth, detection method Absorption (OD600), MEDIA CAMHB, plate type NBS, 384well, time 18 hr
Klebsiella pneumoniae [10] = assay: Antibacterial activity against Klebsiella pneumoniae MDR ATCC 70063; MIC in CAMBH media using NBS plates.; format: functional, ATCC 700603; MDR; conditions: ATCC 700603, ASSAY_TEST Inhibition of Bacterial Growth, detection method Absorption (OD600), MEDIA CAMHB, plate type NBS, 384well, time 18 hr
Pseudomonas aeruginosa [11] = assay: Antibacterial activity against Pseudomonas aeruginosa ATCC 27853; MIC in CAMBH media using NBS plates.; format: functional, ATCC 27853; Type strain; conditions: Type strain, ASSAY_TEST Inhibition of Bacterial Growth, detection method Absorption (OD600), MEDIA CAMHB, plate type NBS, 384well, time 18 hr
Acinetobacter baumannii [12] = assay: Antibacterial activity against Acinetobacter baumannii ATCC 19606; MIC in CAMBH media using NBS plates.; format: functional, ATCC 19606; Type strain; conditions: Type strain, ASSAY_TEST Inhibition of Bacterial Growth, detection method Absorption (OD600), MEDIA CAMHB, plate type NBS, 384well, time 18 hr
Candida albicans [13] = assay: Antifungal activity against Candida albicans ATCC 90028; MIC in YNB media using NBS plates.; format: functional, ATCC 90028; CLSI reference; conditions: CLSI reference, ASSAY_TEST Inhibition of Fungal Growth, detection method Absorption (OD630), plate type NBS, 384well, time 18 hr
Cryptococcus neoformans [14] = assay: Antifungal activity against Cryptococcus neoformans H99 ATCC 208821; MIC in YNB media using NBS plates.; format: functional, ATCC 208821; H99 Type strain; conditions: H99 Type strain, ASSAY_TEST Inhibition of Fungal Growth, detection method Resazurin, Absorption (OD600-OD570), plate type NBS, 384well, time 18 hr
[15] = Cytotoxicity against HEK293 cells; CC50 by Resazurin assay in DMEM (10% FBS) media using TC plates; format: toxicity, cell-based, ATCC CRL1573; design: time 18 hr; conditions: human

MIC (Staphylococcus aureus [8]) [mg/L]	MIC (Escherichia coli [9]) [mg/L]	MIC (Klebsiella pneumoniae [10]) [mg/L]	MIC (Pseudomonas aeruginosa [11]) [mg/L]	MIC (Acinetobacter baumannii [12]) [mg/L]	MIC (Candida albicans [13]) [mg/L]	MIC (Cryptococcus neoformans [14]) [mg/L]	Structure (SMILES)	inhibition at 32 µg/mL (Staphylococcus aureus [1]) [%]	inhibition at 32 µg/mL (Escherichia coli [2]) [%]	inhibition at 32 µg/mL (Klebsiella pneumoniae [3]) [%]	inhibition at 32 µg/mL (Pseudomonas aeruginosa [4]) [%]	inhibition at 32 µg/mL (Acinetobacter baumannii [5]) [%]	inhibition at 32 µg/mL (Candida albicans [6]) [%]	inhibition at 32 µg/mL (Cryptococcus neoformans [7]) [%]	CC50 at 18 h [15] [mg/L]
> 32	> 32	> 32	> 32	> 32	16 (≈ 45.6 µM)	> 32	Clc1ccc(-c2nnc3cncc(OCCc4ccccc4)n23)cc1	14.5	5.2	7.5	8.6	5.7	88.8	-0.5	> 32
							c1cc2c(s1)CCOC21CCN(Cc2ccc3c(c2)OCCO3)CC1	17.4	16.1	19.3	8.6	10.2	1	-5.8	
							O=C(Nc1cccc(Cl)c1F)c1cncc2nnc(-c3ccc(OC(F)F)cc3)n12	1.4	-1.1	-0.7	1	-9.8	1.1	-7.5	
> 32	> 32	> 32	> 32	> 32	> 32	> 32	COc1ccc(-n2c(C)cc(CN3CCC4(CC3)OCCc3sccc34)c2C)cc1	55	22.4	15.4	22.6	4.6	2.4	-0.2	> 32
							COc1cc2c(cc1OC)C1(CCN(Cc3ccccc3)CC1)OCC2	16.9	17.8	16.4	23.6	7.9	2.2	-8.2	
							Nc1ncnc2cc(-c3cccc(S(N)(=O)=O)c3)sc12	27.6	17.9	9.5	2.3	7.5	8.9	-4.6	
							Cc1cc(C(=O)OCC(N)=O)c(C)n1-c1ccc(F)cc1	24.9	13.4	12.3	6	12.2	7.5	-2.2	
							COc1ccc(-n2c(C)cc(/C=C3\S/C(=N\c4ccccc4)NC3=O)c2C)cc1	10.6	2.8	-1.1	-4.2	-2.8	7.8	-4.3	
							CC(C)C[C@H](NC(=O)[C@H](CCCCN)NC(=O)Cn1cc(CN2CCCNCCNCCCNCC2)nn1)C(=O)N[C@H](C(=O)N[C@@H](Cc1ccccc1)C(=O)N[C@@H](Cc1ccccc1)C(=O)O)C(C)C	16.9	21.4	6	5	13.1	1.3	-3.4	
